From ChEMBL document CHEMBL1201862, “PubChem BioAssay data set” (2004)
Activity calls are given as the source filed them.

How the values were obtained:
ORF 73 = target: T1, ORF 73 (Human herpesvirus 8, UniProt O40947); assay: KSHV LANA DNA-binding disruption – biochemical, fluorescence polarization, cherry-picked samples, dose response (AID 504725); set-up: species or system Human gammaherpesvirus 8;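 also: fluorescence polarization of a labeled DNA duplex reporting LANA DNA binding; potency is for inhibitors that block LANA binding to the DNA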
T1 sequence (O40947 whole entry): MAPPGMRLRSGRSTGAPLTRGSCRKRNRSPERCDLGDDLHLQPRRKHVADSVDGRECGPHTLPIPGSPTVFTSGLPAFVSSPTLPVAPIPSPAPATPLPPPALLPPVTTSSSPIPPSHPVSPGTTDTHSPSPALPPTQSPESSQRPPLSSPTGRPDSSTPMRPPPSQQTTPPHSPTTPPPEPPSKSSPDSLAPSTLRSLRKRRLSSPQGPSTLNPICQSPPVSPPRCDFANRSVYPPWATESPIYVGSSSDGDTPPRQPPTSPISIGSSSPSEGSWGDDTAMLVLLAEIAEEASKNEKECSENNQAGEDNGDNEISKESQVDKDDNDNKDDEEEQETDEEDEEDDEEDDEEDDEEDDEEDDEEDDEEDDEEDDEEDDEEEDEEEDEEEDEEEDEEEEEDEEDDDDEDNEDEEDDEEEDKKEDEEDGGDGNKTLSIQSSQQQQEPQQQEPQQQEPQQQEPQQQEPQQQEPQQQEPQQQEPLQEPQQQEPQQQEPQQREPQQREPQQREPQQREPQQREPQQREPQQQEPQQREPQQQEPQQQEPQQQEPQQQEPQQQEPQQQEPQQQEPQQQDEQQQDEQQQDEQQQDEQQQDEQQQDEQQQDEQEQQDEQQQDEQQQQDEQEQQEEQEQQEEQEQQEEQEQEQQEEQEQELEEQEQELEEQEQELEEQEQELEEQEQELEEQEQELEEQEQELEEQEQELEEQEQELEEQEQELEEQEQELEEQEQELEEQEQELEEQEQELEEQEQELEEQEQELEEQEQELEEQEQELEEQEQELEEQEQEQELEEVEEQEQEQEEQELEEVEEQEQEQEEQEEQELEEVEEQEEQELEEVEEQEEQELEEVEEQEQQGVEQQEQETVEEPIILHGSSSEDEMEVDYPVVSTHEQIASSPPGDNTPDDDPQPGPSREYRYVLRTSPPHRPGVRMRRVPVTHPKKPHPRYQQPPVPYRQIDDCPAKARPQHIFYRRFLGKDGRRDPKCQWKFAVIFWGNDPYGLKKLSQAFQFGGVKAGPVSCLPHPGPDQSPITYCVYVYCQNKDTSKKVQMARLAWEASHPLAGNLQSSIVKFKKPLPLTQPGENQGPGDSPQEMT

[1] = target: T2, Mannose-6-phosphate isomerase (Homo sapiens, UniProt P34949); assay: MPI inhibition at elevated mannose 6-phosphate – biochemical, fluorescence intensity, high mannose 6-phosphate, primary screen (AID 1220)
T2 sequence (P34949 whole entry): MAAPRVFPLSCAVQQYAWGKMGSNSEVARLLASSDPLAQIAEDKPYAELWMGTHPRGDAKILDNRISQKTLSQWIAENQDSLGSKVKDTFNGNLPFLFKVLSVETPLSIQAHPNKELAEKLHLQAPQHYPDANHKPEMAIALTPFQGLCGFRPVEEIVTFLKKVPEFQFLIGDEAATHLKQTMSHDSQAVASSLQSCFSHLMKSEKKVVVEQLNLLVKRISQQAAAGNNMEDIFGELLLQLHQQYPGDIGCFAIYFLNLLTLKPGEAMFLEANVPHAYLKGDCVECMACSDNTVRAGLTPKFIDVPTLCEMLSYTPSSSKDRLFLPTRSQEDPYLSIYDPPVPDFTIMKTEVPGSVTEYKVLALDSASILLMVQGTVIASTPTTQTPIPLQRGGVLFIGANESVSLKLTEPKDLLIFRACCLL

Keap1/Nrf2 = Keap1/Nrf2 (Homo sapiens, UniProt Q14145); assay: disruptors of Keap1 binding to Nrf2 peptide – biochemical, fluorescence polarization, cherry-picked samples, dose response (AID 588683)
Sequence of Keap1/Nrf2 (Q16236 whole entry): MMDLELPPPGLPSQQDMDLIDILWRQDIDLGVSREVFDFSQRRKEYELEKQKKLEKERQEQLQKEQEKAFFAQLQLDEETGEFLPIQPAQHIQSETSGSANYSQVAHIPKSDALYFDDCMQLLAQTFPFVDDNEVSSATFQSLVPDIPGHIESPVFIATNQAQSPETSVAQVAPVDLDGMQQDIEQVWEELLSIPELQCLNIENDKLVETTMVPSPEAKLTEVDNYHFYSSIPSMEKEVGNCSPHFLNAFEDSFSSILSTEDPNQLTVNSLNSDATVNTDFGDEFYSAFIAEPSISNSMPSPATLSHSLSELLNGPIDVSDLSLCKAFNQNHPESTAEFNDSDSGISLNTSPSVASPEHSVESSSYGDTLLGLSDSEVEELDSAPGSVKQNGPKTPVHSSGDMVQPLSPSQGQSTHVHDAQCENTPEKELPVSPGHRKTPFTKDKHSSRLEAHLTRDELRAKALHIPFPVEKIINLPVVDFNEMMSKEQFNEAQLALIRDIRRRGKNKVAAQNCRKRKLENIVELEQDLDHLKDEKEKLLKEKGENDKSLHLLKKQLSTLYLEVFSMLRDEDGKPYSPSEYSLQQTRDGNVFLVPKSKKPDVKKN
Sequence of Keap1/Nrf2 (Q14145 whole entry): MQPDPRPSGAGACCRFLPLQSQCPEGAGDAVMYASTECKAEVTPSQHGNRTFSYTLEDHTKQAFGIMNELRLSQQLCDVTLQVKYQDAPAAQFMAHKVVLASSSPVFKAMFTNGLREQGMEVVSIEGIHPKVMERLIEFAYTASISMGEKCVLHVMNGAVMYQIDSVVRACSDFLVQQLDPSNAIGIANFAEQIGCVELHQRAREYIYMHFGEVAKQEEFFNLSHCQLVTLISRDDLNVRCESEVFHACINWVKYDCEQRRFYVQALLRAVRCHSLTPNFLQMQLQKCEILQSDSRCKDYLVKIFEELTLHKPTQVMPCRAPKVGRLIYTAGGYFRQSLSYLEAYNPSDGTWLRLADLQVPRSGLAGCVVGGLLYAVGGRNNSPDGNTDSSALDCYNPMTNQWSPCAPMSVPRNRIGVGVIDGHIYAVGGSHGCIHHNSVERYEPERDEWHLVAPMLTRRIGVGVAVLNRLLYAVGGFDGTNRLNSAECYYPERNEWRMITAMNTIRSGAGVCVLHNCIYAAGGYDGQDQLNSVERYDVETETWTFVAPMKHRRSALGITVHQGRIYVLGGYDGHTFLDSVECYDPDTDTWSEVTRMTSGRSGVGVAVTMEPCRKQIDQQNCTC

[2] = target: Voltage-dependent T-type calcium channel subunit alpha-1H (Homo sapiens, UniProt O95180); format: functional;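 also: channel activity triggered by adding a high calcium stimulation buffer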
Sequence of Voltage-dependent T-type calcium channel subunit alpha-1H (O95180 whole entry): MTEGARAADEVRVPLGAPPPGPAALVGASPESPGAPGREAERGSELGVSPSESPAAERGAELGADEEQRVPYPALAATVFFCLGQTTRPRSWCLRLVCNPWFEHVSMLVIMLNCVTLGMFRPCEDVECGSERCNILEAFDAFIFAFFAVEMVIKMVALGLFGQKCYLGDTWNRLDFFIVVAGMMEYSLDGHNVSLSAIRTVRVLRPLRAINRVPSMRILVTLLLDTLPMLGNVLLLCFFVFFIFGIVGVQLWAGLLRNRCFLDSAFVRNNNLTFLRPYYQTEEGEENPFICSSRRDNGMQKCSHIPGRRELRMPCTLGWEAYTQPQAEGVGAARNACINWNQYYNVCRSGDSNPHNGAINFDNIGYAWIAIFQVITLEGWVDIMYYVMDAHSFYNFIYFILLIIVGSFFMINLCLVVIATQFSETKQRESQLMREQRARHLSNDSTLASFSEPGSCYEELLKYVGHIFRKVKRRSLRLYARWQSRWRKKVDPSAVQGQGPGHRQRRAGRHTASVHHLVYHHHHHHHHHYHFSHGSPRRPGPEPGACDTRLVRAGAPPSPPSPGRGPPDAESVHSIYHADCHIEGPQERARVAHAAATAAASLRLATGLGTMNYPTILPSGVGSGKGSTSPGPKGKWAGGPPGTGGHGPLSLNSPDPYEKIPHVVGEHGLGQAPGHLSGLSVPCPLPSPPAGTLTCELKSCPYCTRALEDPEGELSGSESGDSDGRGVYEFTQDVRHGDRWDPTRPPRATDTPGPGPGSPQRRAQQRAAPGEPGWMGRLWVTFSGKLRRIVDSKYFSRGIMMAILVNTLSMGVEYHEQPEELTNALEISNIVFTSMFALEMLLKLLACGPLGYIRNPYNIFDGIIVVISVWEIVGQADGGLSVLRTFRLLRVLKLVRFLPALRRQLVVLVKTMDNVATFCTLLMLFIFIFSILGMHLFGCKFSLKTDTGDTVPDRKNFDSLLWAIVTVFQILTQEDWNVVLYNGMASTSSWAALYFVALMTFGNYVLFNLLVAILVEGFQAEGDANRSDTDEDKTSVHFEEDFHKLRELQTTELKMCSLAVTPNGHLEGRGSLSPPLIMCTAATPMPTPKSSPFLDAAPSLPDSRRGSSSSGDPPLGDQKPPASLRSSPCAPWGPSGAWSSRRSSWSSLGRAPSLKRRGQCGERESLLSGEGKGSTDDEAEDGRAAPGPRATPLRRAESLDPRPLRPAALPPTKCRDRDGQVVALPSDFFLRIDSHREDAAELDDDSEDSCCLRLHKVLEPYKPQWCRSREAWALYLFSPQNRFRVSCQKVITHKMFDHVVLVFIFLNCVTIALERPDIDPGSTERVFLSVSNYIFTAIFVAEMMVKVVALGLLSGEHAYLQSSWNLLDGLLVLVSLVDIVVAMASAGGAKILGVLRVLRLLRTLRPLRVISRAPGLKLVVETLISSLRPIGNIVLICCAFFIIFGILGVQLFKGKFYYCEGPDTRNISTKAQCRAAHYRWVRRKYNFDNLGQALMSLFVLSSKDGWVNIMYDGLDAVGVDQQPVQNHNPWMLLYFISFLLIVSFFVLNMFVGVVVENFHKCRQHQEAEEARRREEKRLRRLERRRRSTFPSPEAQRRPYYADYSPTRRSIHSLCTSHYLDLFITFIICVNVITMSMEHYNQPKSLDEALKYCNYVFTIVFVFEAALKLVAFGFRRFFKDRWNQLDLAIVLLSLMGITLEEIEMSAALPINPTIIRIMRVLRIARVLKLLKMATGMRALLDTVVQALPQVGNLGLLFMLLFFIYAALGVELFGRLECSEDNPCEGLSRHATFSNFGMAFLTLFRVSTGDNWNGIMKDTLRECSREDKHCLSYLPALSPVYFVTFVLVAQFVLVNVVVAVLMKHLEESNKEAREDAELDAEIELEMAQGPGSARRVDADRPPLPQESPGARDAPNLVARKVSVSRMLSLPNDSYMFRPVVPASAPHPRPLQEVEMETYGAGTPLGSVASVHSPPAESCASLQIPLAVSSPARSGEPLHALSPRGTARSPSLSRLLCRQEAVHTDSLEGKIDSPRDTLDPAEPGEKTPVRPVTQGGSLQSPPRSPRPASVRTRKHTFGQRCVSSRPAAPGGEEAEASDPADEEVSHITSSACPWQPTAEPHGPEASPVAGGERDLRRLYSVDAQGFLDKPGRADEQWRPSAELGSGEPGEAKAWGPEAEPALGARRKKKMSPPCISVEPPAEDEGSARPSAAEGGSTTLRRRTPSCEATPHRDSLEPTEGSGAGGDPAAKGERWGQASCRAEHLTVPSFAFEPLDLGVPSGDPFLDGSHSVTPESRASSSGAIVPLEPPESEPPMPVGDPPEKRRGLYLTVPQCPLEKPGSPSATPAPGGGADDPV

HEK293 [3] = assay: cells; conditions: Homo sapiens
HEK293 [4] = assay: cells; conditions: Homo sapiens; remark: listed apart in the source
[5] = target: T2, Mannose-6-phosphate isomerase; assay: phosphomannose isomerase inhibition – biochemical, fluorescence intensity, confirmation (AID 1535)
[6] = target: T3, Heat shock factor protein 1 (Mus musculus, UniProt P38532); assay: decrease of HSF1-responsive luciferase luminescence – cell-based, NIH3T3, dose retest, confirmation (AID 2382); format: functional;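 also: NIH3T3 fibroblasts with HSF1-driven luciferase reporter stressed by proteasome inhibitor MG132; luminescence from HSF1-driven luciferase expression after 8 hours of MG132 stress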
T3 sequence (P38532 whole entry): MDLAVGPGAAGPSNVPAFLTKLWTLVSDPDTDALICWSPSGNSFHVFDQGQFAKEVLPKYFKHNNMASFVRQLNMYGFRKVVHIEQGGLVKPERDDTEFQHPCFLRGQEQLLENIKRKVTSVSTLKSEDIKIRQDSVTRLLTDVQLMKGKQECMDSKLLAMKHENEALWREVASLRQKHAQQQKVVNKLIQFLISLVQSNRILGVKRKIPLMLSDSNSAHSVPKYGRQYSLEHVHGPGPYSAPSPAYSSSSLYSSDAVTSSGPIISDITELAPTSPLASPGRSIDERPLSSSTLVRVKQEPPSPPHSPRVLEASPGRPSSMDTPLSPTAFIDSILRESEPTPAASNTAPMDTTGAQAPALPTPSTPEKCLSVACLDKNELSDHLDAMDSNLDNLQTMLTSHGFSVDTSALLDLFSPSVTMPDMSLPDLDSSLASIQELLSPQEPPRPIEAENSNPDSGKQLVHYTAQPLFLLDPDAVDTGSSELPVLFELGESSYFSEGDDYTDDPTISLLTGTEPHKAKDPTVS

Exodeoxyribonuclease V = target: T4, Exodeoxyribonuclease V (Escherichia coli (strain K12), UniProt P04993+P07648+P08394); assay: RecBCD inhibition via phage-restricted bacterial growth – absorbance, V66 E. coli, mutant T4 phage, counter-screen for AddAB inhibitor project, dose response (AID 492957); format: functional, cell-based, Escherichia coli str. K-12 substr. MG1655
T4 sequence (P04993 whole entry): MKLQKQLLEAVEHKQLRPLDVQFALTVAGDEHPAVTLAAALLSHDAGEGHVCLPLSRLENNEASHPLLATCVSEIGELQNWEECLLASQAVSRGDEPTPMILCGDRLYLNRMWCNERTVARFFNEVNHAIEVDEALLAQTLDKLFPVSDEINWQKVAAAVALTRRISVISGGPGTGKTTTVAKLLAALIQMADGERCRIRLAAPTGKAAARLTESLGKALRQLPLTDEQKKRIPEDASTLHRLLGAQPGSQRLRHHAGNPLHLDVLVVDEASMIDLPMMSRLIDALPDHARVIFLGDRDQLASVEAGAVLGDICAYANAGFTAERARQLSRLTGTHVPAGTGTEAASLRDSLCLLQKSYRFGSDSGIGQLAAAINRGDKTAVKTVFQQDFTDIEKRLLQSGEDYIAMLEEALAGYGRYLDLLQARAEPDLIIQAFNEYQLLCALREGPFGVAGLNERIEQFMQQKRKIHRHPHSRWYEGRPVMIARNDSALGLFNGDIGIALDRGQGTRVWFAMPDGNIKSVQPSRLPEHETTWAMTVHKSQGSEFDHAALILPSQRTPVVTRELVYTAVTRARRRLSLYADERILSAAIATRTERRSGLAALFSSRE
T4 sequence (P07648 whole entry): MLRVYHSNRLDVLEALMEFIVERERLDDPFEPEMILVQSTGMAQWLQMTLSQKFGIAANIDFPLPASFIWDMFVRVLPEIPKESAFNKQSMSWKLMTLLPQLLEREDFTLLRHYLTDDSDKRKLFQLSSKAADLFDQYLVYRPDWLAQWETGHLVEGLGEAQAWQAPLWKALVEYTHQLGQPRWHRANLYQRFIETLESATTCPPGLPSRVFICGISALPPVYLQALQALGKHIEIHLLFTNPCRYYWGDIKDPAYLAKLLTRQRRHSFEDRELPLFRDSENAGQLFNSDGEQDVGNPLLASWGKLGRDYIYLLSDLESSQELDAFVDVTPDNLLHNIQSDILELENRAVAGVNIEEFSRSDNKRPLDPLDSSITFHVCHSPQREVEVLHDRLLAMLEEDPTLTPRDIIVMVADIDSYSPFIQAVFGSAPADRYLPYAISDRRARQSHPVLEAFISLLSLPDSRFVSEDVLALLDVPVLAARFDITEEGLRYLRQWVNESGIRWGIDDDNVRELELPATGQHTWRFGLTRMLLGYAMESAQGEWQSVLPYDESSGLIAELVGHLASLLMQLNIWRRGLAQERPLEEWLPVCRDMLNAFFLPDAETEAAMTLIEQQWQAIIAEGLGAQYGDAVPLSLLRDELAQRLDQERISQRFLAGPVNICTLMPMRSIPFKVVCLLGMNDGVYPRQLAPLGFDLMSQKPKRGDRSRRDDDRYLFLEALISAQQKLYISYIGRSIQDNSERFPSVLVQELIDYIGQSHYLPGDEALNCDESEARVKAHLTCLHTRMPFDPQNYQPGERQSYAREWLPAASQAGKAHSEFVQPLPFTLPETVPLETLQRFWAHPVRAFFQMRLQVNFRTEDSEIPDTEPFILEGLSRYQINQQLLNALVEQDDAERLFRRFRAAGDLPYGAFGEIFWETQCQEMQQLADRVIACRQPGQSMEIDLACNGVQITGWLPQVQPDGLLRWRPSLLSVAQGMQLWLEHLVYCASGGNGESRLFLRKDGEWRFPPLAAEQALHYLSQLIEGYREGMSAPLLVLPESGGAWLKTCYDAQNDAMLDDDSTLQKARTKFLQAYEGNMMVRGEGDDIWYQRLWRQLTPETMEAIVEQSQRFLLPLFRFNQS
T4 sequence (P08394 whole entry): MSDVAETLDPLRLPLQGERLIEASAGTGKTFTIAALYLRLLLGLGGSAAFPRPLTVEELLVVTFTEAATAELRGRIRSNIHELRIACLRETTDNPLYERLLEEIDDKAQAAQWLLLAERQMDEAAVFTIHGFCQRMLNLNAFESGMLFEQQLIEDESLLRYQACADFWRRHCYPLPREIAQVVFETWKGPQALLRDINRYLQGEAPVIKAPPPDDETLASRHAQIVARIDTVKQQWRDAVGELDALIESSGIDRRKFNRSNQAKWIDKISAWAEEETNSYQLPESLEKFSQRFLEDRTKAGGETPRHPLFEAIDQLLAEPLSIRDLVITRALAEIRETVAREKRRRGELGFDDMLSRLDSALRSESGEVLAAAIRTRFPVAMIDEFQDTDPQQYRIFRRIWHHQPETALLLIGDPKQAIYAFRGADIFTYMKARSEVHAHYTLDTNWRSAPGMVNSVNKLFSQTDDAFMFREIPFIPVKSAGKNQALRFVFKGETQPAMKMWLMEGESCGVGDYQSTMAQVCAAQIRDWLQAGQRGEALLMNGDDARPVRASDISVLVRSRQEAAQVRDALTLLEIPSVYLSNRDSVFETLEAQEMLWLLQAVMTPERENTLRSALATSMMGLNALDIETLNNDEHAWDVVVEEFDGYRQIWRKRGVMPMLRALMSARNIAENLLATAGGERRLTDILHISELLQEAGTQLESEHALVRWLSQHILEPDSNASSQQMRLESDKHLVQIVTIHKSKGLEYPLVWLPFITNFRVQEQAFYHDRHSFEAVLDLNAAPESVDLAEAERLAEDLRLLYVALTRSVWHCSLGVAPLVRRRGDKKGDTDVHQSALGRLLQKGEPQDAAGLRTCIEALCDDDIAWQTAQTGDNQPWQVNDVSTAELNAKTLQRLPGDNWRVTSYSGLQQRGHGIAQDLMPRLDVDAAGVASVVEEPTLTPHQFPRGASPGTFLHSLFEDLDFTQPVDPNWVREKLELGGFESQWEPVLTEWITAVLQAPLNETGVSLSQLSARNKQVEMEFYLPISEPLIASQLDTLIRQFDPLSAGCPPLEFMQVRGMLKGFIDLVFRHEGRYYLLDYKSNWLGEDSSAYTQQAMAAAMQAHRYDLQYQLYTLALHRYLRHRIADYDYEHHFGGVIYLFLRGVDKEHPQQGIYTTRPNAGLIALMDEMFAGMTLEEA

[7] = Counterscreen for AddAB inhibitors: absorbance-based bacterial cell-based high throughput dose response assay for inhibitors of bacterial viability. [Related pubchem assays (depositor defined):AID435030, AID449728, AID449731, AID488942, AID488955, AID488956]; format: functional
Vero [8] = assay: cells; format: functional, cell-based; conditions: Chlorocebus sabaeus
[9] = microbe, parasite or virus in culture; format: functional; conditions: Mycobacterium tuberculosis
Vero [10] = assay: cells; format: functional; conditions: Chlorocebus sabaeus
[11] = target: T5, Ubiquitin-conjugating enzyme E2 N (Homo sapiens, UniProt P61088); format: functional;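 also: Dose-response confirmation in a TR-FRET assay detecting UBC13-driven polyubiquitin chain formation, inhibition measured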
T5 sequence (P61088 whole entry): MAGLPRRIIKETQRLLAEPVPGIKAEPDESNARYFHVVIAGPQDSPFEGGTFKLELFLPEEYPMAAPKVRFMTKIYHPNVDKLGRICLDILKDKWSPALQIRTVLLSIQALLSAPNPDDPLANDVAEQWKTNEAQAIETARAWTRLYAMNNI

SMILES: Cc1cc2nc3c(=O)n(C4CCCCC4)c(=O)[nH]c3nc2cc1N
- AC50 (ORF 73): 27.6 µM (active)
- IC50 [1]: > 50 µM (not active)
- AC50 (Keap1/Nrf2): 1.92 µM (active)

SMILES: CCOC(=O)C1CCCN(C(=O)C2c3ccccc3Oc3ccccc32)C1 (configuration not stated)
- AC50 (ORF 73): 127 µM (active)
- AC50 (Keap1/Nrf2): > 52 µM (inactive)
- EC50 [2]: 38.8 µM (active)

SMILES: CC(C)Cn1c(=O)[nH]c(=O)c2c(C(F)(F)F)cc(-c3ccccc3)nc21
- EC50 (HEK293 [3]): > 59.6 µM (inactive)
- EC50 (HEK293 [4]): > 59.6 µM (inactive)

SMILES: CCOc1nss/c1=N\c1ccc2ccccc2c1
- IC50 [5]: > 100 µM (inactive)

SMILES: Clc1nss/c1=N\C1=NCCS1
- IC50 [5]: > 100 µM (inactive)

SMILES: Cc1ccc(-c2oc3ccccc3c(=O)c2O)cc1
- EC50 [6]: > 195 µM (not active)
- IC50 (Exodeoxyribonuclease V): > 119 µM (inactive)
- IC50 [7]: > 119 µM (inactive)

SMILES: CN1CCN(CC/C=C2/c3ccccc3Sc3ccc(S(=O)(=O)N(C)C)cc32)CC1 [THIOTHIXENE]
- IC50 (Vero [8]): > 25 µM (active)
- CC50 [9]: > 40 µM (active)
- CC50 (Vero [10]): 15.2 µM (active)
- IC50 [11]: > 20 µM (inactive)
